From US20080131907A1, “ASSAYS FOR DETECTING NATIVE-STATE PROTEINS AND IDENTIFYING COMPOUNDS THAT MODULATE THE STABILITY OF NATIVE-STATE PROTEINS” (FoldRx Pharmaceuticals, Inc., priority 2006, published 2008) come the findings set out here.

Where “and” joins values, the source holds several entries; their conditions need not be identical. Identical values can stand only once.

For test [1], the target named is T1, tetrameric transthyretin (Homo sapiens, UniProt P02766). The test is described as follows: Immuno-turbidimetric assay 1: plasma + compound, 4.8 M urea, glutaraldehyde cross-linking, Olympus OSR6175 reagent. The following applies: for Normalized (mg/dL) transthyretin tetramer concentration: 7.2 μM compound, 40 mM glutaraldehyde.
Experimental: Next, the immuno-turbidity assay was evaluated in human plasma samples containing transthyretin and in the presence and absence of a test compound 2-(2,6-dichloro-phenyl)-benzoxazole-6-carboxylic acid (a transthyretin stabilizing compound, see Published U.S. Application No. 20040152140). A 1 mL plasma sample was incubated with 1 μL of 2-(2,6-Dichloro-phenyl)-benzoxazole-6-carboxylic acid (solubilized in dimethyl sulfoxide (DMSO), or a control solution containing only DMSO, for 15 minutes at room temperature. The final test concentration of 2-(2,6-dichloro-phenyl)-benzoxazole-6-carboxylic acid (Cmp. 1) was 7.2 μM. Experimental (with compound) or control (only DMSO) samples were then each combined with 1.5 mL of 8 M urea to a final urea concentration of 4.8 M. A 1 mL aliquot was removed immediately (no incubation (no-inc)) for cross-linking and the remaining 1.5 mL mixture was incubated for 3 days at room temperature (3 day). Immediately for the no-inc 1 mL aliquot or following the 3 day incubation for the 3 day samples, 1 mL of the samples was cross-linked by adding 16 L of 25% (2.5 M) glutaraldehyde in water to a final concentration of 40 mM. The mixtures were incubated for 4 minutes at room temperature. The cross-linking reaction was stopped by the addition of 54 μL of 1.85 M freshly prepared sodium borohydride in 0.1 N sodium hydroxide, followed by a 5 minute incubation at room temperature. For analysis, the OSR6175 reagent was added to sample per manufacturer's instructions, and the turbidity, as a measure of the difference between incident and transmitted light, was calculated per manufacturer instruction.
To test the effect of different dosages of 2-(3,5-dichloro-phenyl)-benzoxazole-6-carboxylic acid (Cmp. 2) on transthyretin stabilization, plasma samples (a pool from 20 individual donors) containing 4.3 M transthyretin were treated with 2.2 μM, 4.3 μm, or 8.6 μm Cmp. 2, or DMSO as a negative control, for 15 minutes at room temperature. Following the incubation, the urea denaturant was added to the samples resulting in a final urea concentration of 4.8 M (see FIG. 6). As above, aliquots were removed immediately (day 0) and after incubation at room temperature for 1, 2, and 3 days. Cross-linking (glutaraldehyde) and detection of transthyretin using the Olympus OSR6175 reagent were performed as described under Example 1. For each concentration of Cmp. […]
Since the concentration of transthyretin fluctuates from day to day in an individual subject and can vary between different subjects (e.g., different patients), the efficacy of Cmp. […] Samples were then subjected to denaturation and cross-linking, and stabilized tetrameric transthyretin was measured as described above in Examples 1 and 3.
Test [2] addresses V30M transthyretin mutation, tetrameric transthyretin (Homo sapiens, UniProt P02766, V50M). The test is described as follows: Immuno-turbidimetric assay 1 on pooled plasma from familial amyloid polyneuropathy patients. It is filed as biochemical. The note with it: urea 24, 31 or 36, or 48 hours; 22 mg/dL transthyretin; FIG. 9.
Experimental: The Y-axis represents the percentage of the initial (“Fraction of initial”) transthyretin tetramer concentration remaining in each sample following treatment with urea.
The samples were then subjected to denaturation for 24, 31 or 36, or 48 hours and then cross-linked (as above).
Test [3] deals with T1, tetrameric transthyretin. The experiment in a line: Immuno-turbidimetric assay 2: plasma + compound, urea, no cross-linking (dilution or immediate detection). The note with it: for Stabilization of transthyretin tetramer (in words): 7.2 μM, urea for 3 days, Table 2; for Stabilization of transthyretin tetramer (in words) / Olympus Normalized / Beckman Normalized: human plasma; for Olympus Normalized / Beckman Normalized: 7.2 μM compound, 4.8 M urea; for Olympus Normalized: Olympus reagent; for Beckman Normalized: Beckman reagent.
Experimental: In this second assay, the cross-linking step is replaced with a step of terminating denaturation (caused by the urea treatment) by dilution of the sample. Briefly, a 1 ml sample of human plasma was combined with either 1 μl of a test compound (Cmp. 1: 2-(2,6-dichloro-phenyl)-benzoxazole-6-carboxylic acid or Cmp. 2: 2-(3,5-dichloro-phenyl)-benzoxazole-6-carboxylic acid; see Published U.S. Application No. 20040152140) solubilized in DMSO or a control solution of DMSO, and the samples were incubated for 15 minutes at room temperature prior to addition of urea. The final concentration of the test compounds was 7.2 μM in DMSO. A solution of urea was added such that the final concentration of urea in the sample was 4.8 M. A 1 mL aliquot was removed immediately (no incubation (no-inc)) for dilution (see below) and the remaining 1.5 mL mixture was incubated for 3 days at room temperature (3 day) (FIG. 3). Immediately (for the no-inc) or following the three day incubation (for the 3 day samples), the samples were diluted 1:5 (four volumes diluent were added per one volume equivalent of sample). Potassium chloride (KCl) and sodium phosphate (NaPO4) were also added to the samples at final concentrations of 50 mM and 25 mM, respectively.
2 was also monitored using immuno-turbidimetric assay 2 (Example 2). Plasma samples (a pool from 16 individual donors) containing 4.6 μM transthyretin were treated with 4.6 μm, or 9.2 μm Cmp. 2, or DMSO as a negative control, for 15 minutes at room temperature. Following the incubation, urea was added to the samples resulting in a final urea concentration of 3.2 M (see FIG. 7). Aliquots were removed immediately (day 0) and after incubation at room temperature for 8, 13, 24, 32, and 48 hours. Immediate detection of transthyretin using the Bayer ADVIA prealbumin kit was performed as described by the manufacturer. For each concentration of Cmp. 2, the assay-determined transthyretin concentration at 8, 13, 24, 32, and 48 hours was divided by the assay-determined initial concentration at day 0 to yield the percent of tetramer remaining (FIG. 7).

The target in test [4] is T1, tetrameric transthyretin. The experiment in a line: Western blotting method (urea, cross-linking, SDS-PAGE, anti-transthyretin immunoblot) of plasma samples. Type of test: biochemical. Details: human plasma samples containing transthyretin; from tissue; host or cells: human plasma (single samples or pools of donors). The note with it: 7.2 μM, 3 day urea treatment, FIG. 4B. From the text:
The position of transthyretin tetramer on the immunoblot is indicated at the left of the immunoblot, and the time point at which the samples were collected for assay (0 or 3 days) are indicated above the immunoblot.

`O=C(O)c1ccc2nc(-c3cc(Cl)cc(Cl)c3)oc2c1` [Cmp. 2]: the “Dose dependence of tetramer stabilization (percent of tetramer remaining)” value is on record as “more effective than lower concentrations” at tetrameric transthyretin [1] (2.2, 4.3, 8.6 μM, 4.8 M urea, days 1, 2, 3, pooled plasma, FIG. 6) and “more effective than lower concentrations” on tetrameric transthyretin [3] (4.6 or 9.2 μM, 3.2 M urea, 8-48 hours, Bayer ADVIA prealbumin kit, pooled plasma, FIG. 7). For the same compound, the “Stabilization of tetrameric transthyretin in V30M patient plasma” value in test [2] is “stabilized in a dose-dependent manner”. Also, the “Stabilization of transthyretin tetramer (in words)” value at tetrameric transthyretin [3] was “significantly stabilized”. For the same compound, the “Olympus Normalized” value on tetrameric transthyretin [3] (Day 0) is 22.12 mg/dL and 23.72 mg/dL; at tetrameric transthyretin [3] (Day 3) it was 13.59 mg/dL.

As to `O=C(O)c1ccc2nc(-c3c(Cl)cccc3Cl)oc2c1` [Cmp. 1], at tetrameric transthyretin [1] (7.2 μM, three-day 4.8 M urea treatment, human plasma), the “Stabilization of tetrameric transthyretin (in words)” value is recorded as “nearly completely stabilized”. In addition, the “Normalized (mg/dL) transthyretin tetramer concentration” value was found to be 23.5 mg/dL on tetrameric transthyretin [1] (Day 0 (no incubation), 4.8 M urea, human plasma) and 21.9 mg/dL at tetrameric transthyretin [1] (Day 3 in 4.8 M urea, human plasma). At tetrameric transthyretin [4], the “Stabilization of tetrameric transthyretin by western blot (in words)” value is recorded as “almost completely stabilized”. For the same compound, the “Stabilization of transthyretin tetramer (in words)” value on tetrameric transthyretin [3] is given as “almost completely stabilized”. The “Beckman Normalized” value is reported as 10.53 mg/dL at tetrameric transthyretin [3] (Day 0) and 12.26 mg/dL at tetrameric transthyretin [3] (Day 3). For the same compound, the “Olympus Normalized” value on tetrameric transthyretin [3] (Day 0) came to 22.12 mg/dL; at tetrameric transthyretin [3] (Day 3), 23.45 mg/dL.
